Test results taken from patent publication US12521448B2, “Preparation of solid cyclodextrin complexes for ophthalmic active pharmaceutical ingredient delivery” (Oculis Operations Sarl, priority 2016, dated 2026).

Tests used:
[1] = Degradation on heating of drug suspensions in aqueous γ-cyclodextrin solutions (autoclave vs 95° C.); format: physicochemical; details: autoclaving with γ-cyclodextrin
Text: Diclofenac is suspended in aqueous solutions containing from 1% (w/v) to 15% (w/v) γ-cyclodextrin.

[2] = Dehydration of dexamethasone to 16,17-unsaturated dexamethasone and dexamethasone enol aldehydes during preparation/autoclaving of eye drops; format: physicochemical; details: aqueous eye drops
Protocol: The dehydration of dexamethasone during preparation of the aqueous dexamethasone eye drops described in Example 1 (formulations F1, F2, F3, F4, F5 and F6) is determined by quantitative determination of 16,17-unsaturated dexamethasone and the dexamethasone enol aldehydes in the eye drops after manufacturing. Formulations F12, F13 and F14 are prepared as described in F1, that is by dissolving or suspending the ingredients, including dexamethasone, in pure water and autoclaving the mixture in sealed vial at 121° C. for 20 minutes. The substantially clear aqueous vials are removed from the autoclave and become cloudy upon cooling at ambient conditions. […] F13 comprises dexamethasone and γ-cyclodextrin suspended in pure water. F14 comprises dexamethasone suspended in pure water. The effect of excipients and preparation methods on the formation of 16,17-unsaturated dexamethasone and the dexamethasone enol aldehydes is presented as the fraction (in %) of dexamethasone degraded to form 16,17-unsaturated dexamethasone and the dexamethasone enol aldehydes.
The amount of 16,17-unsaturated dexamethasone and dexamethasone enol aldehydes formed, presented as the fraction (in %) of dexamethasone degraded to form 16,17-unsaturated dexamethasone and dexamethasone enol aldehydes, in aqueous eye drops after no autoclaving (i.e., heating to 121° C. for 20 minutes) once, twice and three times is shown in Table 3. […]

Structure (SMILES) | effect of γ-cyclodextrin on aqueous diclofenac solutions during autoclaving [1] | fraction of dexamethasone degraded to 16,17-unsaturated dexamethasone and dexamethasone enol aldehydes ([2]; pH 2.5, 0 autoclaving cycles (121° C., 20 min)) | fraction of dexamethasone degraded to 16,17-unsaturated dexamethasone and dexamethasone enol aldehydes ([2]; pH 2.5, 1 autoclaving cycle (121° C., 20 min)) | fraction of dexamethasone degraded to 16,17-unsaturated dexamethasone and dexamethasone enol aldehydes ([2]; pH 2.5, 2 autoclaving cycles (121° C., 20 min)) | fraction of dexamethasone degraded to 16,17-unsaturated dexamethasone and dexamethasone enol aldehydes ([2]; pH 2.5, 3 autoclaving cycles (121° C., 20 min)) | fraction of dexamethasone degraded to 16,17-unsaturated dexamethasone and dexamethasone enol aldehydes ([2]; pH 4.0, 0 autoclaving cycles (121° C., 20 min)) | fraction of dexamethasone degraded to 16,17-unsaturated dexamethasone and dexamethasone enol aldehydes ([2]; pH 4.0, 1 autoclaving cycle (121° C., 20 min)) | fraction of dexamethasone degraded to 16,17-unsaturated dexamethasone and dexamethasone enol aldehydes ([2]; pH 4.0, 2 autoclaving cycles (121° C., 20 min)) | fraction of dexamethasone degraded to 16,17-unsaturated dexamethasone and dexamethasone enol aldehydes ([2]; pH 4.0, 3 autoclaving cycles (121° C., 20 min)) | fraction of dexamethasone degraded to 16,17-unsaturated dexamethasone and dexamethasone enol aldehydes ([2]; pH 5.5, 0 autoclaving cycles (121° C., 20 min)) | fraction of dexamethasone degraded to 16,17-unsaturated dexamethasone and dexamethasone enol aldehydes ([2]; pH 5.5, 1 autoclaving cycle (121° C., 20 min)) | fraction of dexamethasone degraded to 16,17-unsaturated dexamethasone and dexamethasone enol aldehydes ([2]; pH 5.5, 2 autoclaving cycles (121° C., 20 min)) | fraction of dexamethasone degraded to 16,17-unsaturated dexamethasone and dexamethasone enol aldehydes ([2]; pH 5.5, 3 autoclaving cycles (121° C., 20 min)) | fraction of dexamethasone degraded to 16,17-unsaturated dexamethasone and dexamethasone enol aldehydes ([2]; pH 7.0, 0 autoclaving cycles (121° C., 20 min)) | fraction of dexamethasone degraded to 16,17-unsaturated dexamethasone and dexamethasone enol aldehydes ([2]; pH 7.0, 1 autoclaving cycle (121° C., 20 min)) | fraction of dexamethasone degraded to 16,17-unsaturated dexamethasone and dexamethasone enol aldehydes ([2]; pH 7.0, 2 autoclaving cycles (121° C., 20 min)) | fraction of dexamethasone degraded to 16,17-unsaturated dexamethasone and dexamethasone enol aldehydes ([2]; pH 7.0, 3 autoclaving cycles (121° C., 20 min))
O=C(O)Cc1ccccc1Nc1c(Cl)cccc1Cl [Diclofenac, diclofenac] | intense coloring | – | – | – | – | – | – | – | – | – | – | – | – | – | – | – | –
C[C@@H]1C[C@H]2[C@@H]3CCC4=CC(=O)C=C[C@]4(C)[C@@]3(F)[C@@H](O)C[C@]2(C)[C@@]1(O)C(=O)CO [dexamethasone] | – | 0.08% | 1.06% | 2.29% | 3.12% | 0.08% | 1.14% | 2.19% | 3.03% | 0.08% | 1.22% | 2.27% | 3.46% | 0.08% | 0.86% | 1.64% | 2.57%
